Results published in PubChem BioAssay AID220 (DTP/NCI, 2004).
Several values for one entry are separate records, joined by “and”; a condition that tells them apart may be missing. Identical values can stand only once. Results filed as inconclusive are left out. Starred links: 1 amine or outer side, 2 acyl side, 3 side chain; linkers in the order of their positions; H or OH if unused. Non-standard residues stand in square brackets, D forms with d. Residues, ends and D or L forms follow the SMILES beside them. *: point of attachment. X2 = CCC(=O)CC1CC(C)CC(C(=O)[*:2])N1[*:1]; X1 = CCCCCCCCC(C)C(=O)*; Aib = CC(C)(N)C(=O)O; X3 = CC(CN(C)CCO)N*

Tested on: CD8F1 mice, subcutaneous mammary adenocarcinoma, T/C%
Assay: NCI In Vivo Anticancer Drug Screen. Data for tumor model Mammary Adenocarcinoma CD8F1 (subcutaneous) in CD8F1
Details: higher = larger tumour
How it was run: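 Transplantable tumors were established in mice, animals were dosed with compound or vehicle, and survival or tumor size was then measured in both groups. The treated result was divided by the control result.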

[1] = endpoint: median tumor weight (est.), dose: 6.25 mg/kg/injection, schedule: Q07DX005 (ip), vehicle: saline
[2] = endpoint: median tumor weight (est.), dose: 12.5 mg/kg/injection, schedule: Q07DX005 (ip), vehicle: saline
[3] = endpoint: median tumor weight (est.), dose: 25.0 mg/kg/injection, schedule: Q07DX005 (ip), vehicle: saline
[4] = endpoint: median tumor weight (est.), dose: 12.5 mg/kg/injection, schedule: Q07DX005 (ip), vehicle: Klucel (hydroxypropylcellulose) (HPC)
[5] = endpoint: median tumor weight (est.), dose: 25.0 mg/kg/injection, schedule: Q07DX005 (ip), vehicle: Klucel (hydroxypropylcellulose) (HPC)

CCc1ncnc2cc(OCC3CO3)c(OC)cc12 (stereo not given)
T/C (endpoint: median tumor weight change, dose: 25.0 mg/kg/injection, schedule: Q01DX001 (ip), vehicle: suspension in saline): 118 % of control | T/C (endpoint: median tumor weight change, dose: 50.0 mg/kg/injection, schedule: Q01DX001 (ip), vehicle: suspension in saline): 110 % of control | T/C (endpoint: median tumor weight change, dose: 100.0 mg/kg/injection, schedule: Q01DX001 (ip), vehicle: suspension in saline): 35 % of control | T/C (endpoint: median tumor weight change, dose: 400.0 mg/kg/injection, schedule: Q01DX001 (ip), vehicle: suspension in saline): 93 % of control

O=C(Nc1nncs1)c1ccncc1
T/C (endpoint: median tumor weight (est.), dose: 25.0 mg/kg/injection, schedule: Q07DX005 (ip), vehicle: saline with Tween-80): 151 % of control | T/C (endpoint: median tumor weight (est.), dose: 800.0 mg/kg/injection, schedule: Q07DX005 (ip), vehicle: saline with Tween-80): 69 % of control

CCCCCCCCC(C)C(=O)N1CCCC1C(=O)N1C(CC(=O)CC)CC(C)CC1C(=O)NC(C)C(=O)NC(C)(C)C(=O)NC(C)(C)C(=O)NC(C(=O)NC(C)C(=O)NC(C)(C)C(=O)NC(C)(C)C(=O)NC(C)CN(C)CCO)C(C)CC (stereo not given) (X1-P[X2]A[Aib][Aib]IA[Aib][Aib]-X3; configuration not given here)
T/C (endpoint: median tumor weight change, dose: 3.0 mg/kg/injection, schedule: Q01DX001 (ip), vehicle: saline with Tween-80): 100 % of control | T/C (endpoint: median tumor weight change, dose: 3.12 mg/kg/injection, schedule: Q01DX001 (ip), vehicle: other): 123 % of control

Nc1ncnc2c1ncn2C1C=C(CO)C(O)C1O (stereo not given)
T/C (endpoint: median tumor weight change, dose: 2.5 mg/kg/injection, schedule: Q01DX001 (ip), vehicle: saline): 63 % of control | T/C (endpoint: median tumor weight change, dose: 2.5 mg/kg/injection, schedule: Q01DX001 (ip), vehicle: suspension in saline): 113 % of control | T/C (endpoint: median tumor weight change, dose: 5.0 mg/kg/injection, schedule: Q01DX001 (ip), vehicle: saline): 107 % of control | T/C (endpoint: median tumor weight change, dose: 5.0 mg/kg/injection, schedule: Q01DX001 (ip), vehicle: suspension in saline): 115 % of control | T/C (endpoint: median tumor weight change, dose: 10.0 mg/kg/injection, schedule: Q01DX001 (ip), vehicle: saline): 100 % of control | T/C (endpoint: median tumor weight change, dose: 20.0 mg/kg/injection, schedule: Q01DX001 (ip), vehicle: saline): 86 % of control | T/C (endpoint: median tumor weight change, dose: 20.0 mg/kg/injection, schedule: Q01DX001 (ip), vehicle: suspension in saline): 39 % of control | T/C (endpoint: median tumor weight change, dose: 40.0 mg/kg/injection, schedule: Q01DX001 (ip), vehicle: saline): 40 % of control

Nc1ncnc2c1ncn2C1OC(CO)C(O)C1O (stereo not given)
T/C (endpoint: median tumor weight (est.), dose: 16.0 mg/kg/injection, schedule: Q07DX005 (ip), vehicle: Klucel (hydroxypropylcellulose) (HPC)): 103 % of control | T/C (endpoint: median tumor weight (est.), dose: 37.5 mg/kg/injection, schedule: Q07DX005 (ip), vehicle: saline): 47 % of control | T/C (endpoint: median tumor weight (est.), dose: 75.0 mg/kg/injection, schedule: Q07DX005 (ip), vehicle: saline): 33 % of control | T/C (endpoint: median tumor weight (est.), dose: 128.0 mg/kg/injection, schedule: Q07DX005 (ip), vehicle: Klucel (hydroxypropylcellulose) (HPC)): 83 % of control and 99 % of control | T/C (endpoint: median tumor weight (est.), dose: 150.0 mg/kg/injection, schedule: Q07DX005 (ip), vehicle: saline): 47 % of control | T/C (endpoint: median tumor weight (est.), dose: 300.0 mg/kg/injection, schedule: Q07DX005 (ip), vehicle: saline): 88 % of control | T/C (endpoint: median tumor weight (est.), dose: 600.0 mg/kg/injection, schedule: Q07DX005 (ip), vehicle: saline): 71 % of control | T/C (endpoint: median tumor weight (est.), dose: 1200.0 mg/kg/injection, schedule: Q07DX005 (ip), vehicle: saline): 60 % of control

COC1=NCN=C2SC=C(N)N=C12
T/C [1]: 208 % of control | T/C [2]: 76 % of control | T/C [3]: 107 % of control | T/C (endpoint: median tumor weight (est.), dose: 50.0 mg/kg/injection, schedule: Q07DX005 (ip), vehicle: saline): 156 % of control

CC(=O)[C@H]1CC[C@H]2[C@@H]3C[C@H](C)C4=CC(=O)CC[C@]4(C)[C@H]3C(=O)C[C@]12C
T/C (endpoint: mean tumor weight (est.), dose: 200.0 mg/kg/injection, schedule: Q07DX003 (ip), vehicle: saline): 67 % of control | T/C (endpoint: mean tumor weight (est.), dose: 400.0 mg/kg/injection, schedule: Q07DX003 (ip), vehicle: saline): 61 % of control | T/C (endpoint: mean tumor weight (est.), dose: 800.0 mg/kg/injection, schedule: Q07DX003 (ip), vehicle: saline): 86 % of control | T/C (endpoint: mean tumor weight, dose: 200.0 mg/kg/injection, schedule: Q07DX005 (ip), vehicle: saline): 107 % of control | T/C (endpoint: mean tumor weight, dose: 200.0 mg/kg/injection, schedule: Q07DX006 (ip), vehicle: saline): 63 % of control | T/C (endpoint: mean tumor weight, dose: 200.0 mg/kg/injection, schedule: Q07DX007 (ip), vehicle: saline): 90 % of control | T/C (endpoint: mean tumor weight, dose: 400.0 mg/kg/injection, schedule: Q07DX005 (ip), vehicle: saline): 54 % of control | T/C (endpoint: mean tumor weight, dose: 400.0 mg/kg/injection, schedule: Q07DX006 (ip), vehicle: saline): 39 % of control | T/C (endpoint: mean tumor weight, dose: 400.0 mg/kg/injection, schedule: Q07DX007 (ip), vehicle: saline): 25 % of control | T/C (endpoint: mean tumor weight, dose: 800.0 mg/kg/injection, schedule: Q07DX005 (ip), vehicle: saline): 36 % of control | T/C (endpoint: mean tumor weight, dose: 800.0 mg/kg/injection, schedule: Q07DX007 (ip), vehicle: saline): 49 % of control

CCCCCC(=O)O[C@]1(C(C)=O)CC[C@H]2[C@@H]3CCC4=CC(=O)CC[C@]4(C)[C@H]3CC[C@@]21C
T/C [4]: 95 % of control | T/C [5]: 90 % of control | T/C (endpoint: median tumor weight (est.), dose: 50.0 mg/kg/injection, schedule: Q07DX005 (ip), vehicle: Klucel (hydroxypropylcellulose) (HPC)): 101 % of control | T/C (endpoint: median tumor weight (est.), dose: 100.0 mg/kg/injection, schedule: Q07DX005 (ip), vehicle: Klucel (hydroxypropylcellulose) (HPC)): 92 % of control | T/C (endpoint: median tumor weight (est.), dose: 200.0 mg/kg/injection, schedule: Q07DX005 (ip), vehicle: Klucel (hydroxypropylcellulose) (HPC)): 49 % of control | T/C (endpoint: median tumor weight (est.), dose: 400.0 mg/kg/injection, schedule: Q07DX005 (ip), vehicle: Klucel (hydroxypropylcellulose) (HPC)): 77 % of control

N=C(N)CCCCCCCCC(=N)N
T/C (endpoint: median tumor weight (est.), dose: 3.12 mg/kg/injection, schedule: Q07DX005 (ip), vehicle: Klucel (hydroxypropylcellulose) (HPC)): 67 % of control | T/C (endpoint: median tumor weight (est.), dose: 3.12 mg/kg/injection, schedule: Q07DX005 (ip), vehicle: saline): 86 % of control | T/C (endpoint: median tumor weight (est.), dose: 6.25 mg/kg/injection, schedule: Q07DX005 (ip), vehicle: Klucel (hydroxypropylcellulose) (HPC)): 123 % of control | T/C [1]: 78 % of control | T/C [4]: 34 % of control | T/C [2]: 76 % of control | T/C [5]: 31 % of control | T/C [3]: 28 % of control | T/C (endpoint: median tumor weight change, dose: 8.0 mg/kg/injection, schedule: Q01DX001 (ip), vehicle: saline): 61 % of control | T/C (endpoint: median tumor weight change, dose: 15.63 mg/kg/injection, schedule: Q01DX001 (ip), vehicle: saline): 77 % of control | T/C (endpoint: median tumor weight change, dose: 16.0 mg/kg/injection, schedule: Q01DX001 (ip), vehicle: saline): 186 % of control | T/C (endpoint: median tumor weight change, dose: 31.25 mg/kg/injection, schedule: Q01DX001 (ip), vehicle: saline): 76 % of control | T/C (endpoint: median tumor weight change, dose: 32.0 mg/kg/injection, schedule: Q01DX001 (ip), vehicle: saline): 48 % of control

CCN1/C(=C/C=C/C=C/c2sc3ccccc3[n+]2CC)Sc2ccccc21
T/C (endpoint: median tumor weight (est.), dose: 0.37 mg/kg/injection, schedule: Q07DX006 (ip), vehicle: saline): 77 % of control | T/C (endpoint: median tumor weight (est.), dose: 0.75 mg/kg/injection, schedule: Q07DX006 (ip), vehicle: saline): 233 % of control

Cc1cc(N/N=C/c2ccccn2)nc2ccccc12
T/C (endpoint: median tumor weight change, dose: 31.25 mg/kg/injection, schedule: Q01DX001 (ip), vehicle: Klucel (hydroxypropylcellulose) (HPC)): 92 % of control | T/C (endpoint: median tumor weight change, dose: 62.5 mg/kg/injection, schedule: Q01DX001 (ip), vehicle: Klucel (hydroxypropylcellulose) (HPC)): 100 % of control | T/C (endpoint: median tumor weight change, dose: 125.0 mg/kg/injection, schedule: Q01DX001 (ip), vehicle: Klucel (hydroxypropylcellulose) (HPC)): 96 % of control | T/C (endpoint: median tumor weight change, dose: 250.0 mg/kg/injection, schedule: Q01DX001 (ip), vehicle: Klucel (hydroxypropylcellulose) (HPC)): 59 % of control

NC(N)=NC(N)=Nc1ccc(-c2ccc(N=C(N)N=C(N)N)cc2)cc1
T/C (endpoint: median tumor weight (est.), dose: 3.12 mg/kg/injection, schedule: Q07DX005 (ip), vehicle: saline with Tween-80): 108 % of control | T/C (endpoint: median tumor weight (est.), dose: 6.25 mg/kg/injection, schedule: Q07DX005 (ip), vehicle: saline with Tween-80): 118 % of control | T/C (endpoint: median tumor weight (est.), dose: 12.5 mg/kg/injection, schedule: Q07DX005 (ip), vehicle: saline with Tween-80): 156 % of control

Nc1ccc(C(OC(=O)c2cc3ccccc3c(Cc3c(O)c(C(=O)OC(c4ccc(N)cc4)(c4ccc(N)cc4)c4ccc(N)cc4)cc4ccccc34)c2O)(c2ccc(N)cc2)c2ccc(N)cc2)cc1
T/C (endpoint: median tumor weight change, dose: 6.25 mg/kg/injection, schedule: Q01DX001 (ip), vehicle: saline with Tween-80): 73 % of control | T/C (endpoint: median tumor weight change, dose: 50.0 mg/kg/injection, schedule: Q01DX001 (ip), vehicle: saline with Tween-80): 97 % of control | T/C (endpoint: median tumor weight change, dose: 62.5 mg/kg/injection, schedule: Q01DX001 (ip), vehicle: saline with Tween-80): 61 % of control
